The results in this text go back to ChEMBL document CHEMBL4145534, “Computer-aided insights into receptor-ligand interaction for novel 5-arylhydantoin derivatives as serotonin 5-HT7 receptor agents with antidepressant activity” (Eur J Med Chem, 2018).

Assay [1] deals with T1, 5-hydroxytryptamine receptor 1A (Homo sapiens, UniProt P08908).
T1 sequence (P08908 whole entry): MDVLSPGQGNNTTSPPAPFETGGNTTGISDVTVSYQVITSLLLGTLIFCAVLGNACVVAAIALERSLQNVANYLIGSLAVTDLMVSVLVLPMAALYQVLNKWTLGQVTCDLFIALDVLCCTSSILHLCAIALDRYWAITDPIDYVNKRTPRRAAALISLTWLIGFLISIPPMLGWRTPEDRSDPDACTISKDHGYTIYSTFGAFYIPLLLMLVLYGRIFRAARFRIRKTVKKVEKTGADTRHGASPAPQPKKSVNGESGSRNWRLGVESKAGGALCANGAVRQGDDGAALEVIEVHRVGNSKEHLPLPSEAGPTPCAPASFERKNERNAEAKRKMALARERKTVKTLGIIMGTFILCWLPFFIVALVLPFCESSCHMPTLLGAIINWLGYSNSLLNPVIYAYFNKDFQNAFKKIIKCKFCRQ
Briefly: Displacement of [3H]-8-OH-DPAT from human 5HT1AR expressed in HEK293 cell membranes after 1 hr by Microbeta scintillation counting method.

Assay [2] concerns the target T2, Adrenergic receptor alpha-2 (Rattus norvegicus, UniProt P22086+P19328+P22909).
T2 sequence (P22086 whole entry): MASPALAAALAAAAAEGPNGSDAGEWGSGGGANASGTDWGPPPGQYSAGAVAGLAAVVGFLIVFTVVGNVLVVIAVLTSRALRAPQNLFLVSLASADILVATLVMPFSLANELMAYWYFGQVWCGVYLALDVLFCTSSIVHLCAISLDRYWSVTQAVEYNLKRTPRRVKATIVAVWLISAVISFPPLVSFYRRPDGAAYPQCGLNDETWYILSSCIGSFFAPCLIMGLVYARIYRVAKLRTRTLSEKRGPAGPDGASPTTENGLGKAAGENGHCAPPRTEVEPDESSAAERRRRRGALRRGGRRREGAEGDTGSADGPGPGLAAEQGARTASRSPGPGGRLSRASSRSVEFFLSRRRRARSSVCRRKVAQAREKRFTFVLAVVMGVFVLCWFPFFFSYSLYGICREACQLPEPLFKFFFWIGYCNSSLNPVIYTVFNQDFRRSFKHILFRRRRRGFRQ
T2 sequence (P19328 whole entry): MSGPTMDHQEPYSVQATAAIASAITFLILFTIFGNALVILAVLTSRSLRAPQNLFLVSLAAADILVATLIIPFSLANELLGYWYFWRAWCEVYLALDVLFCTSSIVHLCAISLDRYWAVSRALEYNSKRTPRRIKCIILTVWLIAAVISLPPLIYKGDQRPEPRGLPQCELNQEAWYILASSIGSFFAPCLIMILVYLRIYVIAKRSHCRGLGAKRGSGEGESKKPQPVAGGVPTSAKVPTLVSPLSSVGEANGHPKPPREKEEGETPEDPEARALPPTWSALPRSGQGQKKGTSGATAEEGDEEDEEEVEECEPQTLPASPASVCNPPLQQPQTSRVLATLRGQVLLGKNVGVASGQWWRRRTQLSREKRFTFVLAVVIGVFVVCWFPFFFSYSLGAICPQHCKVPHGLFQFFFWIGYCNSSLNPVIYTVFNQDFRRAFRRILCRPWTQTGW
T2 sequence (P22909 whole entry): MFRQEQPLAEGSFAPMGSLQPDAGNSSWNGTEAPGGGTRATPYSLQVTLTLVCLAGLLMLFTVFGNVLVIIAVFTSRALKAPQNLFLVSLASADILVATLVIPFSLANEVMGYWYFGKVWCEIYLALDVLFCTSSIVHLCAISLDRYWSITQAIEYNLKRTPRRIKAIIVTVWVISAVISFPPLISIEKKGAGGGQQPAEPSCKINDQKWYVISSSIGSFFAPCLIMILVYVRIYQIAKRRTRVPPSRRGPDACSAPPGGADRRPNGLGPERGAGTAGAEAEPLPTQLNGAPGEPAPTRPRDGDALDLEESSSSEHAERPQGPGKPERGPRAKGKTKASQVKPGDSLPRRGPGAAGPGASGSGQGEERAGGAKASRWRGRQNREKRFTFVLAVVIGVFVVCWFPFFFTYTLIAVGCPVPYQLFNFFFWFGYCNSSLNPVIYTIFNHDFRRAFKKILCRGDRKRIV
Briefly: Displacement of [3H]-clonidine from alpha2-adrenergic receptor in rat brain cortex after 30 mins by Microbeta scintillation counting method.

SMILES strings stand for the structures. Where only a bound is given, the exact number is not on record here.

For `CC1(c2ccc(Br)cc2)NC(=O)N(CC(O)CN2CCN(c3ccccc3C#N)CC2)C1=O.Cl` (racemic), the Ki in assay [1] is 140 nM; in assay [2] it was above 5000 nM.
For `COc1ccccc1N1CCN(CC(O)CN2C(=O)NC(C)(c3ccc(Br)cc3)C2=O)CC1.Cl` (racemic), the Ki is 85 nM in assay [1] and above 5000 nM in assay [2].
In the same order, the values of `CC1(c2ccc(Cl)cc2)NC(=O)N(CC(O)CN2CCN(c3ccccc3C#N)CC2)C1=O.Cl` (racemic) are 305 nM and above 10000 nM.
